Data on one substance can be found in patent US20220143072A1, “Chitosan nitrate for use as a nitric oxide donor (NO donor)” (NO-ceuticals B.V., priority 2019, published 2022).

This data set can be described thus: Fasting salivary nitrate and nitrite after oral nitrate (Quantofix test strips). The note with it: in vivo. Also on record: species or system human. The method, then: Measuring the fasting value of salivary nitrate and nitrite does give a reflection of the plasma value of nitrate and nitrite. The patient took one capsule chitosan nitrate, containing 120 mg NO3− anion, at 11:00 pm. […] An equivalent amount of 120 mg NO3− was taken at 11:00 pm. […] Oligo chitosan is absorbed before reaching the colon and NO3− will then also be absorbed. Quantofix test strips nitrate and nitrite from Macherey-Nagel company, Germany, were used for measurement of NO3− and NO2−. These test strips allow semiquantitative measurement. Reading of the test strips was performed with a Quantofix Relax reader. Other tests were done based on the ingestion of the daily dose in the morning and by measuring the salivary nitrate and salivary nitrite 24 hours later. Two capsules of chitosan nitrate contained an equivalent amount of 240 mg NO3−. Ten measurements were done for both chitosan nitrate and KNO3 salt.

As to chitosan nitrate, the “nitrite values in saliva relative to KNO3” value is given as “three times higher”.
